Experimental findings from paper PMC13576449, “Small-Molecule Activators of PRMT1: Discovery, SAR Analyses, and Proapoptotic Effects in Pancreatic Cancer Cells” (Journal of Medicinal Chemistry, 2026) are described below.

In one test the target is T1, FLAG-tagged PRMT1 (Rattus norvegicus, UniProt Q63009).
T1 construct: Full-length FLAG-tagged PRMT protein; made in house; host or cells: Sf9 insect cells (baculovirus)
Put plainly: Fluorescence-based in vitro PRMT assay (F-PRMT assay), PRMT1. The class given is biochemical. To be noted: for activation at 100 µM: read-out: enhancement (increase) of PRMT1 enzymatic activity.

The test system of the next test is PaTu8988T cells. As to the kind of experiment: Annexin V/PI flow cytometry apoptosis assay, PaTu8988T. The class given is cell-based, human. To be noted: for gemcitabine-induced apoptosis, AV/PI flow cytometry, co-treatment: TR-033 5 µM, TR-036 10 µM, ICTR-059 5 µM, after 24 h gemcitabine 1 μM, vs gemcitabine alone. Here is the method: 6 Effect of small-molecule modulators on gemcitabine-induced apoptosis and tumor growth of PDAC cells. […] Subsequently, the luminescence-based caspase3/7 assay was performed. The activity of caspase 3/7 in treated cells was normalized to the activity measured in untreated cells (dark gray bar), which was set to 1 (mean SD, n = 6 for PANC-1 and n = 4 for PaTu8988T; *: p ≤ 0.05, **: p ≤ 0.01, ***: p ≤ 0.001, using the student t-test). […] After 24 h, gemcitabine (GEM, 1 μM) was added (+) or not (−) for another incubation of 48 h. Subsequently, the apoptotic cell fraction was quantified in % by flow cytometry using FITC-labeled Annexin V (AV) and propidium iodide (PI) staining (in B: mean ± SD, n = 6 for PANC-1 and n = 5 for PaTu8988T; **: p ≤ 0.01, ***: p ≤ 0.001, ****: p ≤ 0.0001, using the student t-test). […] Viable cells are AV/PI double-negative (AV–/PI–, lower left quadrant, Q4), early apoptotic cells are AV single-positive (AV+/PI– upper left quadrant, Q1), late apoptotic cells are AV/PI double-positive (AV+/PI+, upper right quadrant, Q2), and necrotic cells are PI single-positive (AV–/PI+, lower right quadrant, Q3). The sum of early and late apoptotic cell numbers (Q2+Q3 in %) is indicated in red. D-G: The workflow of the PDAC xenograft experiments in mice is depicted in D. PANC-1 cells (2 × 10^6 cells/mouse) were subcutaneously (s.c.) injected in the right flank of female athymic nude mice. […] Tumor volumes were measured every second day using a digital caliper. […] At the end of the 2 weeks, mice were sacrificed and tumors were dissected (F).
For quantification of apoptosis by Fluorescence Activated Cell Sorting (FACS), PANC-1 and PaTu8988T cells were seeded in 6-well plates (250 × 10^3 cells/well) and cultured in the absence or presence of compounds. After 24 h, gemcitabine was added or not for another 48 h. After harvesting and washing, unfixed cells (0.5–1 × 10^6) were incubated with FITC-labeled Annexin V and/or PI (BD Pharmingen) according to the manufacturer’s instructions. All samples were analyzed using a BD FACSCalibur flow cytometer (BD Bioscience). Data were acquired using the CellQuestPro program and analyzed with the FlowJo (FlowJo LLC) software.
After 24 hours, gemcitabine (GEM, 1 µM) was added (+) or not
(-) for another incubation of 48 hours. Subsequently, the apoptotic cell fraction was assessed by flow cytometry using FITC-labeled Annexin V (AV) and propidium iodide (PI) staining and quantified in % (mean ± SD, n=3-4; ns: not significant, *: p ≤0.05, **: p ≤0.01, ***: p ≤0.001, ****: p ≤0.0001, using the student t-test).

The mark [1] stands for this setting: 100 μM compound, increase over solvent-treated activity.

T1 sequence (Q63009 whole entry): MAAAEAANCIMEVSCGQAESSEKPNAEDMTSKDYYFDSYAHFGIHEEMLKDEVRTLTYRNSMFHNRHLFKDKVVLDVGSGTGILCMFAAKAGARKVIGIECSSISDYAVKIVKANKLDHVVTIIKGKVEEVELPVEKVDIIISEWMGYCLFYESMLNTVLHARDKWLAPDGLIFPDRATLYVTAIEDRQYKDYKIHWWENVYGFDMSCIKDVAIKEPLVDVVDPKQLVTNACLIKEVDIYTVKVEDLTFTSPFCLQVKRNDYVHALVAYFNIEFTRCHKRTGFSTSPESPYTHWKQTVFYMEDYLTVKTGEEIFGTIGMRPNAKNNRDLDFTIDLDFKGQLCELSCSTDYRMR

With `CN(C)Cc1cccc(CN/C=C2\C(=O)NC(=O)c3ccccc32)c1.Cl` [TR-07, (Z)-1-[3-({[(1,3-Dioxo-2,3-dihydroisoquinolin-4(1H)-lidene)methyl]amino}methyl)phenyl]-N,N-dimethylmethanaminium chloride], the “enhancement (increase) of PRMT1 enzymatic activity” value on FLAG-tagged PRMT1 (setting [1]) was “+45%”. Further, the “Efficacy ±Δ% (PRMT1)” value on FLAG-tagged PRMT1 (Table 1, 100 μM compound, mean % difference of activity vs solvent control (100%), - inhibition, + activation, n = 3) was “+45%”. At FLAG-tagged PRMT1 (Table S3, 100 µM compound, mean % difference vs solvent control (100%), n≥3), the “Efficacy ±∆% (PRMT1)” value is “+45%”. Further, at FLAG-tagged PRMT1 (read-out: half-maximal effective concentration (EC50) for PRMT1), the EC50 amounted to 108 µM. In addition, in the test on PaTu8988T cells (Homo sapiens, PaTu 8988t, 48 h, read-out: Q4, viable cells (AV–/PI–)), the viability at 10 µM was 95.8%. For the same compound, in the test with PaTu8988T cells (PaTu8988T, TR-07 10 μM), the “apoptosis, AV/PI flow cytometry, single agent” value is recorded as “did not significantly induce apoptosis”. For the same compound, the “gemcitabine-induced apoptosis, AV/PI flow cytometry, co-treatment” value (from here on “gemcitabine-induced apoptosis”) with PaTu8988T cells (PaTu8988T, TR-07 10 μM, 48 h) is “significant increase in the early and late apoptotic stages”.

Turning to `CN(C)Cc1cccc(-c2ccc3[nH]c(=O)c4ccccc4c3c2)c1` [TR-033, 2-{3-[(Dimethylamino)methyl]phenyl}phenanthridin-6(5H)-One], on FLAG-tagged PRMT1 (100 μM compound), the “PRMT1 activity compared to the solvent-treated activity of 100%” value (“PRMT1 activity … of 100%” for short) is given as 215–225% and the “effect on PRMT1 activity (in words)” value was “significantly increased PRMT1 activity”. At FLAG-tagged PRMT1 (setting [1]), the activation at 100 µM is ≥ 60%. The “gemcitabine-induced apoptosis” value with PaTu8988T cells (PaTu8988T, TR-07 10 μM, 48 h) is on record as “rather diminished the gemcitabine-triggered cell death”.

As to `CCN(CC)Cc1cccc(N/C=C2\C(=O)NC(=O)c3ccccc32)c1.Cl` [TR-036, (Z )-N-(3-{[(1,3-Dioxo-2,3-dihydroisoquinoline-4(1 H )-ylidene)methyl]amino}benzyl)-N -ethylethanaminium chloride], the “PRMT1 activity … of 100%” value on FLAG-tagged PRMT1 (100 μM compound) was 215–225%. For the same compound, the activation at 100 µM at FLAG-tagged PRMT1 (setting [1]) is ≥ 60%. In addition, the “gemcitabine-induced apoptosis” value in the test on PaTu8988T cells (PaTu8988T, TR-07 10 μM, 48 h) is given as “rather diminished the gemcitabine-triggered cell death”.

Take “(Z)-2-(2-{[(1,3-Dioxo-2,3-dihydroisoquinolin-4(1H)-ylidene)methyl]amino}phenyl)-N,N-dimethylethan-1-aminium chloride [ICTR-059]”: the “PRMT1 activity … of 100%” value on FLAG-tagged PRMT1 (100 μM compound) is “up to 200%”. Moreover, the “gemcitabine-induced apoptosis” value in the test on PaTu8988T cells (PaTu8988T, TR-07 10 μM, 48 h) was “weakly enhanced the gemcitabine-induced apoptosis”.
